Source: US8916183B2, “Pesticidal compositions and processes related thereto” (priority 2012, dated 2014)

Experiments:
[1] = system: Beet Armyworm (BAW) (Spodoptera exigua); experiment: Bioassay on beet armyworm (BAW), 128-well diet tray assay; assay type: in vivo; conditions: Spodoptera exigua; beet armyworm, 50 μg/cm^2; read-out: % Mortality BAW 50 μg/cm^2
[2] = system: Corn Earworm (CEW) (Helicoverpa zea); experiment: Bioassay on corn earworm (CEW), 128-well diet tray assay; assay type: in vivo; conditions: Helicoverpa zea; corn earworm, 50 μg/cm^2; read-out: % Mortality CEW 50 μg/cm^2
Outline: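 Activity was scored as percent larval mortality per well, averaged across eight wells and reported on a rating scale. Diet trays (128-well) were kept at 25° C with 14:10 light-dark for five to seven days.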

[3] = system: Green Peach Aphid (GPA) (Myzus persicae); experiment: Bioassay on green peach aphid (GPA), foliar spray on cabbage seedlings; assay type: in vivo; conditions: green peach aphid, 200 ppm, read-out: % Mortality GPA 200 ppm
Outline: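 Cabbage seedlings (2-3 true leaves), each infested a day earlier with 20-50 wingless adult and nymph GPA, were sprayed on both leaf sides to runoff, four pots per treatment. Corrected % control was calculated against solvent-check plants.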

melting point [°C]	Structure (SMILES)	mortality at 50 µg/cm2 [1] [%]	mortality at 50 µg/cm2 [2] [%]	mortality at 200 ppm [3] [%]
219 to 222	Cc1cccc(NC(=S)N/N=C/c2ccc(-c3ncn(-c4ccc(OC(F)(F)F)cc4)n3)cc2)c1C(C)C [Compound I-43]	–	–	–
163 to 167	CC(C)c1cc(F)ccc1NC(=S)NN [Compound I-50]	–	–	–
217 to 221	CC(C)c1cc(F)c(F)cc1NC(=S)N/N=C/c1ccc(-c2ncn(-c3ccc(OC(F)(F)F)cc3)n2)cc1 [Compound I-55]	–	–	–
169 to 170	CC(C)c1cc(F)c(F)cc1NC(=S)NN [Compound I-54]	–	–	–
213 to 216	FC(F)(F)Oc1ccc(-n2cnc(-c3ccc(/C=N/NC(=S)Nc4ccccc4C4CCCC4)cc3)n2)cc1 [Compound I-35]	–	–	–
167 to 169	Cc1ccc(C(C)C)c(NC(=S)NN)c1 [Compound I-46]	–	–	–
–	COc1cc(C)c(/N=C(/N/N=C/c2ccc(-c3ncn(-c4ccc(OC(F)(F)F)cc4)n3)cc2)SCC(=O)NCCCNC(=O)OC(C)(C)C)c(C)c1 [Compound 60C]	50 to 100	50 to 100	0
–	FC(F)(F)Oc1ccc(-n2cnc(-c3ccc(/C=N/N=C4\SCCCN4c4c(Cl)cccc4C(F)(F)F)cc3)n2)cc1 [Compound 190C]	50 to 100	50 to 100	0 to 80
–	CCS/C(=N\c1c(Cl)cccc1Cl)N/N=C/c1ccc(-c2ncn(-c3ccc(OC(F)(F)F)cc3)n2)cc1 [Compound 2C]	50 to 100	50 to 100	0
–	CCc1ccccc1N1/C(=N/N=C/c2ccc(-c3ncn(-c4ccc(OC(F)(F)F)cc4)n3)cc2)SCC1(C)O (stereo not drawn) [Compound 254C]	50 to 100	50 to 100	0 to 80
–	CC(C)c1ccccc1N1/C(=N/N=C/c2ccc(-c3ncn(-c4ccc(C(F)(F)F)cc4)n3)cc2)SCC1(C)O (stereo not drawn) [Compound 261C]	50 to 100	50 to 100	0
–	CCC(C)c1ccccc1N1CCS/C1=N\N=C\c1ccc(-c2ncn(-c3ccc(OC(F)(F)F)cc3)n2)cc1 (stereo not drawn) [Compound 135C]	50 to 100	50 to 100	0
–	Cc1cccc(C)c1-n1c(-c2cc(-c3ccc(Cl)cc3)no2)cs/c1=N\N=C\c1ccc(-c2ncn(-c3ccc(OC(F)(F)F)cc3)n2)cc1 [Compound 76C]	50 to 100	50 to 100	0 to 80
